Test results published in the NIST ThermoML archive (doi:10.1016/j.jct.2005.10.019).

Columns and labels:
[1] = excess molar enthalpy (molar enthalpy of mixing); xn = mol fraction of the nth substance listed; conditions: 298.15 K, 101 kPa, Liquid
[2] = 298.15 K; 101.33 kPa; Liquid

C[C@@H]1COC(=O)O1 [(R)-4-methyl-1,3-dioxolan-2-one] + C[C@H]1COC(=O)O1
[1]
Conditions | excess molar enthalpy [kJ/mol]
x2 = 0.02206 | -0.000706
x2 = 0.04317 | -0.00137
x2 = 0.06338 | -0.00201
x2 = 0.06919 | -0.00192
x2 = 0.08276 | -0.00258
x2 = 0.1014 | -0.00307
x2 = 0.1192 | -0.00355
x2 = 0.1294 | -0.0036
x2 = 0.1364 | -0.00399
x2 = 0.1529 | -0.00439
x2 = 0.1688 | -0.00476
x2 = 0.1823 | -0.0048
x2 = 0.1841 | -0.00509
x2 = 0.1988 | -0.00541
x2 = 0.213 | -0.00569
x2 = 0.2268 | -0.00595
x2 = 0.2292 | -0.00597
x2 = 0.2709 | -0.0068
x2 = 0.3084 | -0.00709
x2 = 0.3422 | -0.00743
x2 = 0.3673 | -0.00776
x2 = 0.3729 | -0.0078
x2 = 0.3988 | -0.008
x2 = 0.4008 | -0.00799
x2 = 0.4264 | -0.00819
x2 = 0.4363 | -0.00825
x2 = 0.4366 | -0.00829
x2 = 0.4627 | -0.00851
x2 = 0.4815 | -0.0084
x2 = 0.4921 | -0.00856
x2 = 0.5254 | -0.00856
x2 = 0.5372 | -0.00832
x2 = 0.5551 | -0.00837
x2 = 0.5959 | -0.00823
x2 = 0.6186 | -0.00814
x2 = 0.6431 | -0.00802
x2 = 0.6596 | -0.0077
x2 = 0.6697 | -0.00771
x2 = 0.6985 | -0.00735
x2 = 0.699 | -0.0071
x2 = 0.7209 | -0.00694
x2 = 0.73 | -0.00679
x2 = 0.7641 | -0.00612
x2 = 0.7644 | -0.00632
x2 = 0.7782 | -0.00587
x2 = 0.7929 | -0.00558
x2 = 0.7949 | -0.00558
x2 = 0.7997 | -0.00541
x2 = 0.8022 | -0.00553
x2 = 0.8081 | -0.00527
x2 = 0.8122 | -0.0052
x2 = 0.8228 | -0.00475
x2 = 0.8239 | -0.00494
x2 = 0.8252 | -0.00494
x2 = 0.8385 | -0.00465
x2 = 0.8404 | -0.00458
x2 = 0.8439 | -0.00456
x2 = 0.8522 | -0.00434
x2 = 0.8575 | -0.00417
x2 = 0.8665 | -0.00394
x2 = 0.8753 | -0.00372
x2 = 0.8812 | -0.00359
x2 = 0.8857 | -0.00349
x2 = 0.8902 | -0.00335
x2 = 0.8939 | -0.00323
x2 = 0.8964 | -0.00319
x2 = 0.9121 | -0.00276
x2 = 0.9133 | -0.0027
x2 = 0.9285 | -0.00231
x2 = 0.9335 | -0.0021
x2 = 0.9419 | -0.00184
x2 = 0.9454 | -0.00178
x2 = 0.9547 | -0.00146
x2 = 0.9629 | -0.00123
x2 = 0.9768 | -0.000769
x2 = 0.9811 | -0.000633

C[C@H](N)c1ccccc1 [(S)-(-)-αmethylbenzylamine]
Conditions | mass density [kg/m3]
[2] | 965.49

C[C@H](NCc1ccccc1)c1ccccc1 [(S)-N-benzyl-1-phenylethylamine] + C[C@@H](NCc1ccccc1)c1ccccc1
[1]
Conditions | excess molar enthalpy [kJ/mol]
x1 = 0.05697 | -0.000895
x1 = 0.09481 | -0.00138
x1 = 0.1905 | -0.00255
x1 = 0.2961 | -0.00344
x1 = 0.4009 | -0.00402
x1 = 0.5331 | -0.00426
x1 = 0.5712 | -0.00421
x1 = 0.6151 | -0.00402
x1 = 0.7271 | -0.00348
x1 = 0.7998 | -0.00287
x1 = 0.8805 | -0.00184
x1 = 0.9576 | -0.000777

C[C@H]1COC(=O)O1 [(S)-4-methyl-1,3-dioxolan-2-one]
Conditions | mass density [kg/m3]
[2] | 1199.5

C[C@@H](O)c1ccccc1 [(R)-(+)-1-phenylethanol]
Conditions | mass density [kg/m3]
[2] | 1012.4

COC(=O)[C@H](C)CO [(2R)-3-hydroxy-2-methyl-propanoic acid methyl ester] + COC(=O)[C@@H](C)CO
[1]
Conditions | excess molar enthalpy [kJ/mol]
x2 = 0.08854 | 0.0031
x2 = 0.08893 | 0.00329
x2 = 0.08959 | 0.00301
x2 = 0.1627 | 0.00547
x2 = 0.1633 | 0.00532
x2 = 0.1645 | 0.00545
x2 = 0.2257 | 0.00717
x2 = 0.2265 | 0.00704
x2 = 0.2279 | 0.00718
x2 = 0.2798 | 0.00831
x2 = 0.2808 | 0.00828
x2 = 0.2825 | 0.00839
x2 = 0.3269 | 0.00912
x2 = 0.328 | 0.00907
x2 = 0.3298 | 0.00923
x2 = 0.3682 | 0.00969
x2 = 0.3693 | 0.00965
x2 = 0.3713 | 0.00977
x2 = 0.4048 | 0.0101
x2 = 0.4059 | 0.01
x2 = 0.4079 | 0.0101
x2 = 0.4373 | 0.0103
x2 = 0.4385 | 0.0103
x2 = 0.4405 | 0.0104
x2 = 0.4665 | 0.0105
x2 = 0.4677 | 0.0104
x2 = 0.4697 | 0.0105
x2 = 0.4928 | 0.0105
x2 = 0.4939 | 0.0105
x2 = 0.496 | 0.0105
x2 = 0.5037 | 0.0106
x2 = 0.5048 | 0.0106
x2 = 0.53 | 0.0105
x2 = 0.5311 | 0.0106
x2 = 0.5592 | 0.0104
x2 = 0.5602 | 0.0104
x2 = 0.5918 | 0.0101
x2 = 0.5928 | 0.0102
x2 = 0.6285 | 0.00973
x2 = 0.6294 | 0.00976
x2 = 0.6699 | 0.0091
x2 = 0.6709 | 0.00914
x2 = 0.7173 | 0.00821
x2 = 0.7182 | 0.00827
x2 = 0.7718 | 0.00697
x2 = 0.7726 | 0.00704
x2 = 0.8354 | 0.00524
x2 = 0.836 | 0.00527
x2 = 0.9103 | 0.00294
x2 = 0.9107 | 0.00294

C[C@H](O)c1ccccc1 [(S)-(-)-1-phenylethanol]
Conditions | mass density [kg/m3]
[2] | 1012.3

C[C@H](N)c1ccccc1 [(S)-(-)-αmethylbenzylamine] + C[C@@H](N)c1ccccc1
[1]
Conditions | excess molar enthalpy [kJ/mol]
x1 = 0.0173 | 0.000616
x1 = 0.03401 | 0.00121
x1 = 0.05015 | 0.00175
x1 = 0.06577 | 0.00225
x1 = 0.08089 | 0.00268
x1 = 0.09552 | 0.00313
x1 = 0.1097 | 0.00355
x1 = 0.1234 | 0.00393
x1 = 0.1368 | 0.00428
x1 = 0.1408 | 0.00448
x1 = 0.1497 | 0.00462
x1 = 0.1622 | 0.00497
x1 = 0.1744 | 0.00528
x1 = 0.1862 | 0.00554
x1 = 0.2469 | 0.00682
x1 = 0.3297 | 0.00815
x1 = 0.384 | 0.00869
x1 = 0.4161 | 0.0089
x1 = 0.4539 | 0.00903
x1 = 0.555 | 0.00903
x1 = 0.6244 | 0.00868
x1 = 0.7138 | 0.00757
x1 = 0.8027 | 0.00551
x1 = 0.815 | 0.00525
x1 = 0.841 | 0.00462
x1 = 0.8546 | 0.00427
x1 = 0.8686 | 0.00391
x1 = 0.8831 | 0.00351
x1 = 0.8981 | 0.0031
x1 = 0.9136 | 0.00264
x1 = 0.9297 | 0.0022
x1 = 0.9463 | 0.00171
x1 = 0.9636 | 0.00114
x1 = 0.9814 | 0.000486
